For this data set the following is noted: both, human, in vivo. The method, then: The study enrolled 48 subjects in the single rising dose study. Subjects were sorted into six cohorts and randomly assigned to treatment or placebo groups.
A prior study of soticlestat dosing in dogs guided the safety margin of minimal and maximal single dose selection for human subjects. An initial dosage of 10 mg provided a 44-fold safety margin relative to the maximum safe dosage in dogs. […] Each dose trial contained two placebo subjects. Ascending doses were tested in 2 sentinel subjects at a time to determine safety and tolerability before including the full cohort.
The mean values in table 6 with the superscript “a” were derived from n=3 subjects and values with superscript “b” were derived from n=4 subjects.

For the compound `O=C(c1cccnc1-c1ccncc1)N1CCC(O)(Cc2ccccc2)CC1` [soticlestat], the “number of TEAEs reported” value was 29 TEAEs.
